Measurements published in US4977175A, “4,5,6,7-tetrahydrobenzimidazole derivatives as 5HT3 -antagonists” (Yamanouchi Pharmaceutical Co., Ltd., priority 1988, dated 1990).
Where a name gives a salt, the structure may show the parent alone. Read-outs that look alike come from different tables or passages of the source.

Target: T1, 5-HT3 receptor (Rattus norvegicus, UniProt P35563)
T1 construct: Wistar strain male rats of 9 week age were anesthesized; from tissue; host or cells: whole anesthetized Wistar rat in vivo (endogenous receptor; cardiac vagal afferents by own knowledge)
T1 sequence (P35563 24-483): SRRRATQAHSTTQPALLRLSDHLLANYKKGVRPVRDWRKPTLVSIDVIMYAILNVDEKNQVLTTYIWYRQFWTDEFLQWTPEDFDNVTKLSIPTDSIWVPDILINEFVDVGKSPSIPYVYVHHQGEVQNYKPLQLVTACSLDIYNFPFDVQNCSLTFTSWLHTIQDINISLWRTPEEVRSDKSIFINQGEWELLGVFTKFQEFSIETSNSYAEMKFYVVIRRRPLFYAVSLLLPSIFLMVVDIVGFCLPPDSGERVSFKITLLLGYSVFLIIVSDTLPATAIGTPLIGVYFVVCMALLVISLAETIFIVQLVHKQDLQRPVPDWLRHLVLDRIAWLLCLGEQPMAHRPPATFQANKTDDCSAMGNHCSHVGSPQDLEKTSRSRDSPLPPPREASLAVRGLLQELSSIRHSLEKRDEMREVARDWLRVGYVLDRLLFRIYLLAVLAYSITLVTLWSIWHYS
Assay: Inhibition of serotonin- or 2-methylserotonin-induced Bezold-Jarisch (BJ) reflex in anesthetized rats (5-HT3-antagonizing activity)
Format: in vivo, Wistar strain male rats
Conditions: serotonin-induced BJ reflex in rats, read-out: BJ Reflex Inhibitory Activity (ED50)
Description: Wistar strain male rats of 9 week age were anesthesized with intraperitoneally administering 1 g/kg of urethane. Under artificial respiration, blood pressure and heart rate were measured. Transient reduction in heart rate and in blood pressure induced by intravenous administration of serotonin or 2-methylserotonin which is a selective agonist of 5-HT3 was used as an index for the reaction via 5-HT3 receptor (Bezold-Jarisch reflex : Paintal, A.S., Physiol. Rev., 53, 159, 1973).
Inhibitory activity of the compounds of the present invention on serotonin-induced Bezold-Jarisch (BJ) reflex in rats is shown in the table below.

| ED50 (iv) [µg/kg] | ED50 (po) [µg/kg] | Compound |
| --- | --- | --- |
| 0.32 | 5.9 | COc1ccccc1NC(=O)C1CCc2[nH]cnc2C1 (racemic) [Example 1, N-(2-methyloxyphenyl) -4,5,6,7-tetrahydrobenzimidazole-5carboxamide fumarate 0.8hydrate] |
| 1.2 | 6.6 | CCOc1ccccc1NC(=O)C1CCc2nc[nH]c2C1.O=C(O)/C=C/C(=O)O (stereo not shown) [Example 13, N-(2-Ethoxyphenyl)-4,5,6,7-tetrahydrobenzimidazole-5-carboxamide fumarate] |
